Data as given in patent US6472348B1, “Pyridone derivatives and herbicides” (Kumiai Chemical Industry Co., Ltd., priority 1996, dated 2002).

A melting point of 207 to 208 °C was found for `Cc1cc(-c2cc(O)c(Cl)cc2F)c(=O)n(C)c1C(F)(F)F` [Compound No. 1-79, 3-(4-chloro-2-fluoro-5-hydroxyphenyl)-1,5-dimethyl-6-trifluoromethyl-2(1H)-pyridone] in this work.
A melting point of 91 to 92 °C was found for `CC(=O)Sc1cc(-c2ccc(C(F)(F)F)n(C)c2=O)c(F)cc1Cl` [Compound No. 1-85, 3-(5-acetylthio-4-chloro-2-fluorophenyl)-1-methyl-6-trifluoromethyl-2(1H)-pyridone] in this work.
A melting point of 115 to 118 °C was found for `Cn1c(C(F)(F)F)ccc(-c2cc([N+](=O)[O-])c(F)cc2F)c1=O` [Compound No. 1-100, 3-(2,4-difluoro-5-nitrophenyl)-1-methyl-6-trifluoromethyl-2(1H)-pyridone] in this work.
A melting point of 263 to 265 °C was found for `Cn1c(C(F)(F)F)ccc(-c2cc3[nH]c(=O)oc3cc2Cl)c1=O` [Compound No. 3-20, 3-(6-chlorobenzoxazolin-2-on-5-yl)-1-methyl-6-trifluoromethyl-2(1H)-pyridone] in this work.
A melting point of 169 to 171 °C was found for `CSCc1cc2c(-c3ccc(C(F)(F)F)n(C)c3=O)c(F)cc(Cl)c2o1` [Compound No. 4-44, 3-(7-chloro-5-fluoro-2-methylthiomethylbenzofuran-4-yl)-1-methyl-6-trifluoromethyl-2-(1H)-pyridone] in this work.
A melting point of 125 to 127 °C was found for `CCC(c1cc2c(-c3ccc(C(F)(F)F)n(C)c3=O)c(F)cc(Cl)c2o1)[S+](C)[O-]` (stereo not shown) [Compound No. 4-57, 3-[7-chloro-5-fluoro-2-(1-methylsulfinylpropyl)benzofuran-4-yl]-1-methyl-6-trifluoromethyl-2-(1H)-pyridone] in this work.
A melting point of 146 to 148 °C was found for `CCC(c1cc2c(-c3ccc(C(F)(F)F)n(C)c3=O)c(F)cc(Cl)c2o1)S(C)(=O)=O` (stereo not shown) [Compound No. 4-58, 3-[7-chloro-5-fluoro-2-(1-methylsulfonylpropyl)benzofuran-4-yl]-1-methyl-6-trifluoromethyl-2-(1H)-pyridone] in this work.
